# According to ChEMBL document CHEMBL6071160, “Identification of a novel 10-hydroxyevodiamine prodrug as a potent topoisomerase inhibitor with improved aqueous solubility for treatment of hepatocellular carcinoma” (Eur J Med Chem, 2024):
# Assays:
# SK-HEP1 [1] = experiment: Induction of cell cycle arrest in human SK-HEP1 cells assessed as accumulation of cells at G1 phase 80 nM measured after 24 hrs by flow cytometric assay (reference value: 47.55%); assay type: functional
# Huh-7 [2] = experiment: Induction of apoptosis in human Huh-7 cells assessed as early apoptotic cells at 80 nM measured after 24 hrs by Annexin-V-FITC/PI analysis (reference value: 1.04%); assay type: functional
# SK-HEP1 [3] = experiment: Induction of apoptosis in human SK-HEP1 cells assessed as late apoptotic cells at 80 nM measured after 24 hrs by Annexin-V-FITC/PI analysis (reference value: 0.64%); assay type: functional
# Huh-7 [4] = experiment: Induction of cell cycle arrest in human Huh-7 cells assessed as accumulation of cells at G2 phase 80 nM measured after 24 hrs by flow cytometric assay (reference value: 13.66%); assay type: functional
# Huh-7 [5] = experiment: Induction of cell cycle arrest in human Huh-7 cells assessed as accumulation of cells at G1 phase 80 nM measured after 24 hrs by flow cytometric assay (reference value: 63.01%); assay type: functional
# Huh-7 [6] = experiment: Induction of apoptosis in human Huh-7 cells assessed as necrotic cells at 80 nM measured after 24 hrs by Annexin-V-FITC/PI analysis (reference value: 0.27%); assay type: functional
# Huh-7 [7] = experiment: Induction of apoptosis in human Huh-7 cells assessed as loss of mitochondrial membrane potential by measuring JC-1 stained cells at 80 nM measured after 24 hrs by JC-1 staining based flow cytometry (reference value: 2.27%); assay type: functional
# Huh-7 [8] = experiment: Induction of apoptosis in human Huh-7 cells assessed as viable cells at 80 nM measured after 24 hrs by Annexin-V-FITC/PI analysis (reference value: 97.46%); assay type: functional; conditions: read-out: Activity
# Huh-7 [9] = experiment: Induction of apoptosis in human Huh-7 cells assessed as ROS generation by measuring DCFH2-DA stained cells at 80 nM measured after 24 hrs […] (reference value: 0.45%); assay type: functional
# SK-HEP1 [10] = experiment: Induction of apoptosis in human SK-HEP1 cells assessed as viable cells at 80 nM measured after 24 hrs by Annexin-V-FITC/PI analysis (reference value: 97.20%); assay type: functional; conditions: read-out: Activity
# [11] = Aqueous solubility of the compound […] measured after 72 hrs in shaking by HPLC analysis; assay type: physicochemical
# Huh-7 [12] = experiment: Induction of apoptosis in human Huh-7 cells assessed as late apoptotic cells at 80 nM measured after 24 hrs by Annexin-V-FITC/PI analysis (reference value: 1.23%); assay type: functional
# SK-HEP1 [13] = experiment: Induction of apoptosis in human SK-HEP1 cells assessed as loss of mitochondrial membrane potential by measuring JC-1 stained cells at 80 nM measured after 24 hrs by JC-1 staining based flow cytometry (reference value: 0.49%); assay type: functional
# SK-HEP1 [14] = experiment: Induction of cell cycle arrest in human SK-HEP1 cells assessed as accumulation of cells at S phase 80 nM measured after 24 hrs by flow cytometric assay (reference value: 30.04%); assay type: functional
# SK-HEP1 [15] = experiment: Induction of cell cycle arrest in human SK-HEP1 cells assessed as accumulation of cells at G2 phase 80 nM measured after 24 hrs by flow cytometric assay (reference value: 22.41%); assay type: functional
# SK-HEP1 [16] = experiment: Induction of apoptosis in human SK-HEP1 cells assessed as necrotic cells at 80 nM measured after 24 hrs by Annexin-V-FITC/PI analysis (reference value: 0.70%); assay type: functional
# Huh-7 [17] = experiment: In vivo antitumor activity against human Huh-7 cells subcutaneously injected into BALB/C nude mouse assessed as tumor growth inhibition at 10 mg/kg, ip administered once daily measured after 14 days; assay type: functional; conditions: Huh-7, 336 h, time 14 day, read-out: TGI
# Huh-7 [18] = experiment: Induction of cell cycle arrest in human Huh-7 cells assessed as accumulation of cells at S phase 80 nM measured after 24 hrs by flow cytometric assay (reference value: 23.33%); assay type: functional
# Huh-7 [19] = experiment: Antiproliferative activity against human Huh-7 cells assessed as inhibition of cell proliferation incubated for 72 hrs by MTT assay; assay type: functional, cell-based; conditions: Huh-7, 72 h
# SK-HEP1 [20] = experiment: Induction of apoptosis in human SK-HEP1 cells assessed as early apoptotic cells at 80 nM measured after 24 hrs by Annexin-V-FITC/PI analysis (reference value: 1.45%); assay type: functional
# SK-HEP1 [21] = experiment: Induction of apoptosis in human SK-HEP1 cells assessed as ROS generation by measuring DCFH2-DA stained cells at 80 nM measured after 24 hrs […] (reference value: 0.14%); assay type: functional
compound,measurement,setting,value
CC(=O)Oc1ccc2[nH]c3c(c2c1)CCN1C(=O)c2cc(F)cc(F)c2N(c2cccc(F)c2)C31 (stereo unspecified),Activity,SK-HEP1 [1],11.73%
same,Activity,Huh-7 [2],6.38%
same,Activity,SK-HEP1 [3],9.72%
same,Activity,Huh-7 [4],70.08%
same,Activity,Huh-7 [5],18.15%
same,Activity,Huh-7 [6],0.83%
same,Activity,Huh-7 [7],12.03%
same,viability at 0.08 µM,Huh-7 [8],82.5%
same,Activity,Huh-7 [9],17.42%
same,viability at 0.08 µM,SK-HEP1 [10],68.1%
same,solubility thermodynamic at 72 h,[11],2.4 µg/mL
same,Activity,Huh-7 [12],10.32%
same,Activity,SK-HEP1 [13],12.96%
same,Activity,SK-HEP1 [14],23.31%
same,Activity,SK-HEP1 [15],64.96%
same,Activity,SK-HEP1 [16],0.85%
same,inhibition in vivo at 10 mg/kg,Huh-7 [17],40%
same,Activity,Huh-7 [18],11.77%
same,IC50,Huh-7 [19],40 nM
same,Activity,SK-HEP1 [20],21.32%
same,Activity,SK-HEP1 [21],57.06%
